Measured values published in ChEMBL document CHEMBL4339250 (J Nat Prod, 2019).
Values belong to the compound of their own block, whether it stands above or below them. Active and inactive are the calls of the source. The rule behind the calls is not given here.

Tests used:
[1] = target: T1, Peroxisome proliferator-activated receptor alpha (Homo sapiens) (UniProt Q07869); test: Agonist activity at human PPARalpha expressed in African green monkey COS7 cells assessed as increase in receptor transcriptional activity at 10 uM by luciferase reporter gene assay relative to WY-14643; type: cell-based
T1 sequence (whole entry): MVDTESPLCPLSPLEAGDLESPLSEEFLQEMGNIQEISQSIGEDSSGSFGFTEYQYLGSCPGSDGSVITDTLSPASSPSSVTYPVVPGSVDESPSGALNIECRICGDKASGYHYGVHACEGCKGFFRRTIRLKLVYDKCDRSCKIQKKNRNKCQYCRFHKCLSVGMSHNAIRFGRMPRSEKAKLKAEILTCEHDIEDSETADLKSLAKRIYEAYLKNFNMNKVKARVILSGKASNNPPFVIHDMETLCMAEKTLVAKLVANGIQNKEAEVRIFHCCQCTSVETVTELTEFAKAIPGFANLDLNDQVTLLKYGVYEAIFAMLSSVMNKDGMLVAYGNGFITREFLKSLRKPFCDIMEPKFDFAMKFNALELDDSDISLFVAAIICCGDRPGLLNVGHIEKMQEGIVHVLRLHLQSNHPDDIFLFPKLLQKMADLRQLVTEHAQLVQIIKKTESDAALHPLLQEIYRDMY

[2] = target: T2, Peroxisome proliferator-activated receptor gamma (Homo sapiens, UniProt P37231); test: Agonist activity at human PPARgamma expressed in African green monkey COS7 cells assessed as increase in receptor transcriptional activity by luciferase reporter gene assay relative to rosiglitazone; type: cell-based
T2 sequence (P37231 whole entry): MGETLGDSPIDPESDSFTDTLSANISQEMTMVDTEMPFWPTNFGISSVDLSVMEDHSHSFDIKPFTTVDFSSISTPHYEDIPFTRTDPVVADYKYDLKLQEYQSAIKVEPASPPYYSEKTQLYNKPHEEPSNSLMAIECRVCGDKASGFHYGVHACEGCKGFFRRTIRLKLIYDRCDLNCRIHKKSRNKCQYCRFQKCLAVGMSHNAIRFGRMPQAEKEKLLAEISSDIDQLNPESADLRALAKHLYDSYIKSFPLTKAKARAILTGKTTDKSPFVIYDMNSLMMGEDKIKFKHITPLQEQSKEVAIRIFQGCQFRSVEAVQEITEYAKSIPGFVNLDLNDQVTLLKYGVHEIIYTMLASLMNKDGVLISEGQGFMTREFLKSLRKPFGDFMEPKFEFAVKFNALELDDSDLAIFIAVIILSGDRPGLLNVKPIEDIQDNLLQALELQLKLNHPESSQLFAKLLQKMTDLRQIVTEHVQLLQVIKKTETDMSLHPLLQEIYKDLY

[3] = target: T3, Peroxisome proliferator-activated receptor gamma (Homo sapiens) (UniProt P37231); conditions: at 10 µM
T3 sequence (whole entry): T2 sequence (P37231 whole entry)

[4] = tested on: HUVEC; test: (§1) Anti-inflammatory activity in HUVEC assessed as reduction in TNFalpha-stimulated neutrophil-HUVEC interactions by measuring decrease in mononuclear leukocyte to endothelial cells at 10 uM treated for 20 hrs post 48 hrs after RXRalpha siRNA transfection followed by TNFalpha stimulation for 24 hrs using freshly isolated mononuclear leukocytes perfused over endothelial monolayers for 5 mins by phase contrast microscopy; type: functional, cell-based; conditions: Homo sapiens
[5] = tested on: HUVEC; test: Induction of apoptosis in HUVEC at 30 uM incubated for 24 hrs by annexin V-FITC and propidium iodide staining based flow cytometry; type: cell-based; conditions: human
[6] = tested on: HUVEC; test: as §1, with “pretreated” for “treated”, “before” for “post 48 hrs after RXRalpha siRNA transfection followed by”, “mins in presence of PPARgamma antagonist GW9662” for “mins”; type: functional, cell-based; conditions: Homo sapiens
[7] = tested on: HUVEC; test: as §1, with “PPARalpha” for “RXRalpha”; type: functional, cell-based; conditions: Homo sapiens
[8] = tested on: HUVEC; test: as §1, with “1” for “10”, “pretreated” for “treated”, “before” for “post 48 hrs after RXRalpha siRNA transfection followed by”; type: functional, cell-based; conditions: Homo sapiens
[9] = target: T4, Peroxisome proliferator-activated receptor alpha (Homo sapiens, UniProt Q07869); test: Agonist activity at human PPARalpha expressed in African green monkey COS7 cells assessed as increase in receptor transcriptional activity by luciferase reporter gene assay relative to WY-14643; type: cell-based
T4 sequence (Q07869 whole entry): T1 sequence (whole entry)

[10] = tested on: Neutrophil; test: Cytotoxicity against human neutrophils assessed as reduction in cell viability at 30 uM incubated for 24 hrs by MTT assay; type: cell-based
[11] = tested on: HUVEC; test: Cytotoxicity against HUVEC assessed as reduction in cell viability at 30 uM incubated for 24 hrs by MTT assay; type: cell-based; conditions: human
[12] = tested on: HUVEC; test: as §1, with “control” for “RXRalpha”; type: functional, cell-based; conditions: Homo sapiens
[13] = Cytotoxicity against HUVEC assessed as cell viability at 30 uM incubated for 24 hrs by MTT assay; type: cell-based; conditions: human, HUVEC cells; read-out: Activity
[14] = tested on: HUVEC; test: (§2) Anti-inflammatory activity in HUVEC assessed as reduction in TNFalpha-stimulated neutrophil-HUVEC interactions by measuring decrease in neutrophil adhesion to endothelial cells at 1 uM pretreated for 20 hrs before TNFalpha stimulation for 24 hrs using freshly isolated neutrophils perfused over endothelial monolayers for 5 mins by phase contrast microscopy; type: functional, cell-based; conditions: Homo sapiens
[15] = Cytotoxicity against human neutrophils assessed as cell viability at 30 uM incubated for 24 hrs by MTT assay; type: cell-based, Neutrophil; conditions: read-out: Activity
[16] = tested on: HUVEC; test: as §2, with “mononuclear leukocyte” for “neutrophil adhesion”, “10” for “1”, “mononuclear leukocytes” for “neutrophils”, “mins in presence of PPARalpha antagonist GW6471” for “mins”; type: functional, cell-based; conditions: Homo sapiens
[17] = target: RXR alpha/PPAR gamma (Homo sapiens) (UniProt P37231+P19793); test: Induction of RXRalpha/PPARgamma interaction in HUVEC at 10 uM pretreated for 20 hrs before TNFalpha stimulation by immunoprecipitation and Western blotting analysis; type: cell-based
[18] = tested on: HUVEC; test: as §2, with “mononuclear leukocyte” for “neutrophil adhesion”, “cells” for “cells at 1 uM”, “mononuclear leukocytes” for “neutrophils”; type: functional, cell-based; conditions: Homo sapiens
[19] = tested on: HUVEC; test: as §1, with “PPARgamma” for “RXRalpha”; type: functional, cell-based; conditions: Homo sapiens
[20] = tested on: Neutrophil; test: Induction of apoptosis in human neutrophils at 30 uM incubated for 24 hrs by annexin V-FITC and propidium iodide staining based flow cytometry; type: cell-based
[21] = tested on: HUVEC; test: Cytotoxicity against HUVEC assessed as induction of cell damage at 30 uM incubated for 24 hrs by MTT assay; type: cell-based; conditions: human
[22] = tested on: Neutrophil; test: Cytotoxicity against human neutrophils assessed as induction of cell damage at 30 uM incubated for 24 hrs by MTT assay; type: cell-based
[23] = tested on: HUVEC; test: as §1, with “1” for “10”, “28” for “20”, “PPARalpha” for “RXRalpha”; type: functional, cell-based; conditions: Homo sapiens
[24] = tested on: HUVEC; test: as §1, with “1” for “10”, “control” for “RXRalpha”; type: functional, cell-based; conditions: Homo sapiens

Compound: CC1=C(/C=C/C(C)=C\C=C\C(C)=C\C(=O)O)C(C)(C)CCC1
Efficacy [1]: inactive

Compound: C/C(=C\CC[C@]1(C)CCc2cc(O)cc(C)c2O1)CC/C=C(\C)C(=O)O
Activity [4]: inactive | Efficacy [1]: 107% | Activity [5]: Non-Toxic | Activity [6]: inactive | Activity [7]: Active | Activity [8]: Active | EC50 ([9]; read-out: EC50): 0.184 µM | Activity [10]: Non-Toxic | EC50 ([2]; read-out: EC50): 0.084 µM | Efficacy [3]: 95% | Activity [11]: Non-Toxic | Activity [12]: Active | viability at 24 h, 30 µM [13]: 73.4% | Activity [14]: inactive | viability at 24 h, 30 µM [15]: 89.2% | Activity [16]: Active | Activity [17]: Active | IC50 [18]: 4.9 µM | Activity [19]: inactive | Activity [20]: Non-Toxic

Compound: CN(CCOc1ccc(CC2SC(=O)NC2=O)cc1)c1ccccn1 (stereo unspecified) [ROSIGLITAZONE]
Efficacy [1]: inactive | Activity [8]: Active | EC50 [9]: Not Active | Activity [10]: Toxic | Activity [23]: Active | Activity [11]: Toxic | Activity [14]: inactive | Activity [24]: Active | inhibition [18]: Dose-dependent effect

Compound: Cc1cc(SCc2sc(-c3ccc(C(F)(F)F)cc3)nc2C)ccc1OCC(=O)O
Efficacy [1]: inactive

Compound: COC(=O)C(OC(=O)/C(C)=C/CC/C(C)=C/CC[C@]1(C)CCc2cc(OC)cc(C)c2O1)C(=O)OC
Efficacy [1]: 76% | EC50 ([9]; read-out: EC50): 1.62 µM | Efficacy [3]: 37%

Compound: Cc1cccc(Nc2cc(Cl)nc(SCC(=O)O)n2)c1C [PIRINIXIC ACID]
EC50 [2]: Not Active | Activity [14]: inactive

Continued, in another order:

Efficacy [1]: 14%
Compound: COC(=O)COC(=O)/C(C)=C/CC/C(C)=C/CC[C@]1(C)CCc2cc(OC(=O)c3ccccc3)cc(C)c2O1

Efficacy [1]: 49% | EC50 ([2]; read-out: EC50): 0.991 µM | Efficacy [3]: 86%
Compound: CCCOC(=O)/C(C)=C/CC/C(C)=C/CC[C@]1(C)CCc2cc(O)cc(C)c2O1

Efficacy [1]: 82% | EC50 ([9]; read-out: EC50): 1 µM | EC50 ([2]; read-out: EC50): 1 µM | Efficacy [3]: 55%
Compound: COc1cc(C)c2c(c1)CC[C@@](C)(CC/C=C(\C)CC/C=C(\C)C(=O)O)O2
Activity [21]: Toxic | Activity [22]: Toxic

Efficacy [1]: 39% | Efficacy [3]: 24%
Compound: COC(=O)COC(=O)/C(C)=C/CC/C(C)=C/CC[C@]1(C)CCc2cc(OC)cc(C)c2O1

Efficacy [1]: 18%
Compound: C/C(=C\CC[C@]1(C)CCc2cc(OCC(N)=O)cc(C)c2O1)CC/C=C(\C)C(=O)OCc1ccccc1

Efficacy [1]: 27% | Efficacy [3]: 35%
Compound: COC(=O)/C(C)=C/CC/C(C)=C/CC[C@]1(C)CCc2cc(O)cc(C)c2O1

Efficacy [1]: 191% | EC50 ([9]; read-out: EC50): 1 µM | EC50 ([2]; read-out: EC50): 1.69 µM | Efficacy [3]: 88%
Compound: CCCOc1cc(C)c2c(c1)CC[C@@](C)(CC/C=C(\C)CC/C=C(\C)C(=O)O)O2

Efficacy [1]: 28%
Compound: C/C(=C\CC[C@]1(C)CCc2cc(OCc3ccccc3)cc(C)c2O1)CC/C=C(\C)C(=O)OCc1ccccc1
